Measured values from patent US8906904B2, “Alkoxy pyrazoles as soluble guanylate cyclase activators” (Boehringer Ingelheim International GmbH, priority 2012, dated 2014).
In brackets after ≈: the same amount, converted by molar mass.

Test: Assessment of solubility (McIlvaine buffers, 24 h shake, UPLC-UV)
Format: physicochemical
Conditions: kinetic from dmso stock
In short: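 Compounds from 10 mM DMSO stocks were shaken for 24 h at room temperature in McIlvaine buffers at pH 2.2, 4.5 and 6.8 (2.5% v/v DMSO final), then filtered. Filtrates were quantified by UPLC-UV at 254 nm against a 50:50 acetonitrile/water reference assumed fully dissolved, as a single determination.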

Structure (SMILES)	solubility at 24 h (pH 2.2, aqueous buffer)	solubility at 24 h (pH 4.5, aqueous buffer)	solubility at 24 h (pH 6.8, aqueous buffer)
CCOc1c(C(=O)O)cnn1-c1cccc(-c2cccc(C)c2OCc2ccc3c(c2C)CCN(CC2COCCO2)C3)n1 (stereo in doubt) [Compound 185, 1-{6-[2-(2-(S)-1-[1,4]Dioxan-2-ylmethyl-5-methyl-1,2,3,4-tetrahydro-isoquinolin-6-ylmethoxy)-3-methyl-phenyl]-pyridin-2-yl}-5-ethoxy-1H-pyrazole-4-carboxylic acid]	100 µg/mL (≈ 167 µM)	83 µg/mL (≈ 139 µM)	82 µg/mL (≈ 137 µM)
COc1c(C(=O)O)cnn1-c1cccc(-c2cccc(C)c2OCc2ccc3c(c2)CCN(C2CCOC2)C3)n1 (stereo not drawn) [Compound 15]	110 µg/mL (≈ 203 µM)	88 µg/mL (≈ 163 µM)	90 µg/mL (≈ 166 µM)
COc1c(C(=O)O)cnn1-c1cccc(-c2cccc(C)c2OCc2ccc3c(c2C)CCN(C2COC2)C3)n1 [Compound 16]	95 µg/mL (≈ 176 µM)	71 µg/mL (≈ 131 µM)	81 µg/mL (≈ 150 µM)
COc1c(C(=O)O)cnn1-c1cccc(-c2cccc(C)c2OCc2ccc3c(c2Cl)CCN(C2COC2)C3)n1 [Compound 17]	97 µg/mL (≈ 173 µM)	62 µg/mL (≈ 111 µM)	85 µg/mL (≈ 152 µM)
COc1c(C(=O)O)cnn1-c1cccc(-c2cccc(C)c2OCc2ccc3c(c2Cl)CCN(C2CCOCC2)C3)n1 [Compound 18]	110 µg/mL (≈ 187 µM)	86 µg/mL (≈ 146 µM)	90 µg/mL (≈ 153 µM)
COc1c(C(=O)O)cnn1-c1cccc(-c2cccc(C)c2OCc2ccc3c(c2Cl)CCN(CC2(C)COC2)C3)n1 [Compound 19]	96 µg/mL (≈ 163 µM)	70 µg/mL (≈ 119 µM)	75 µg/mL (≈ 127 µM)
COc1c(C(=O)O)cnn1-c1cccc(-c2cccc(C)c2OCc2ccc3c(c2Cl)CCN(C2CCC2)C3)n1 [Compound 20]	95 µg/mL (≈ 170 µM)	72 µg/mL (≈ 129 µM)	68 µg/mL (≈ 122 µM)
COc1c(C(=O)O)cnn1-c1cccc(-c2cccc(C)c2OCc2ccc3c(c2Cl)CCN(CC(C)(C)C)C3)n1 [Compound 21]	96 µg/mL (≈ 167 µM)	62 µg/mL (≈ 108 µM)	60 µg/mL (≈ 104 µM)
COc1c(C(=O)O)cnn1-c1cccc(-c2cccc(C)c2OCc2ccc3c(c2Cl)CCN(C2CCOC2)C3)n1 (stereo not drawn) [Compound 22]	97 µg/mL (≈ 169 µM)	68 µg/mL (≈ 118 µM)	73 µg/mL (≈ 127 µM)
COCC(C)N1CCc2cc(COc3c(C)cccc3-c3cccc(-n4ncc(C(=O)O)c4OC)n3)ccc2C1 (stereo not drawn) [Compound 23]	99 µg/mL (≈ 182 µM)	79 µg/mL (≈ 146 µM)	82 µg/mL (≈ 151 µM)
COc1c(C(=O)O)cnn1-c1cccc(-c2cccc(C)c2OCc2ccc3c(c2)CCN(CC2CC2)C3)n1 [Compound 24]	95 µg/mL (≈ 181 µM)	76 µg/mL (≈ 145 µM)	76 µg/mL (≈ 145 µM)
COc1c(C(=O)O)cnn1-c1cccc(-c2cccc(C)c2OCc2ccc3c(c2)CCN(CC2CCC2)C3)n1 [Compound 25]	91 µg/mL (≈ 169 µM)	38 µg/mL (≈ 70.5 µM)	39 µg/mL (≈ 72.4 µM)
COc1c(C(=O)O)cnn1-c1cccc(-c2cccc(C)c2OCc2ccc3c(c2)CCN(CC2CC(F)(F)C2)C3)n1 [Compound 26]	100 µg/mL (≈ 174 µM)	80 µg/mL (≈ 139 µM)	80 µg/mL (≈ 139 µM)
COc1c(C(=O)O)cnn1-c1cccc(-c2cccc(C)c2OCc2ccc3c(c2C)CCN(C2CCOCC2)C3)n1 [Compound 27]	110 µg/mL (≈ 193 µM)	88 µg/mL (≈ 155 µM)	90 µg/mL (≈ 158 µM)
COc1c(C(=O)O)cnn1-c1cccc(-c2cccc(C)c2OCc2ccc3c(c2C)CCN(CC2(C)COC2)C3)n1 [Compound 28]	110 µg/mL (≈ 193 µM)	83 µg/mL (≈ 146 µM)	90 µg/mL (≈ 158 µM)
COc1c(C(=O)O)cnn1-c1cccc(-c2cccc(C)c2OCc2ccc3c(c2C)CCN(CC2CC(F)(F)C2)C3)n1 [Compound 29]	110 µg/mL (≈ 187 µM)	79 µg/mL (≈ 134 µM)	78 µg/mL (≈ 133 µM)
COc1c(C(=O)O)cnn1-c1cccc(-c2cc(C)cc(C)c2OCc2ccc3c(c2C)CCN(C2CCOCC2)C3)n1 [Compound 180]	100 µg/mL (≈ 172 µM)	79 µg/mL (≈ 136 µM)	76 µg/mL (≈ 130 µM)
COc1c(C(=O)O)cnn1-c1cccc(-c2cc(C)cc(C)c2OCc2ccc3c(c2)CCN(C2CCOCC2)C3)n1 [Compound 181]	110 µg/mL (≈ 193 µM)	87 µg/mL (≈ 153 µM)	88 µg/mL (≈ 155 µM)
COc1ccc(OCc2ccc3c(c2C)CCN(C2CCOCC2)C3)c(-c2cccc(-n3ncc(C(=O)O)c3OC)n2)c1 [Compound 182]	110 µg/mL (≈ 188 µM)	81 µg/mL (≈ 139 µM)	81 µg/mL (≈ 139 µM)

Structure (SMILES)	solubility at 24 h (pH 2.2, aqueous buffer)	solubility at 24 h (pH 4.5, aqueous buffer)	solubility at 24 h (pH 6.8, aqueous buffer)
COc1c(C(=O)O)cnn1-c1cccc(-c2cccc(C)c2OCc2ccc3c(c2C)CCN(C2CCOCC2)CC3)n1 [Compound 184]	89 µg/mL (≈ 153 µM)	76 µg/mL (≈ 130 µM)	76 µg/mL (≈ 130 µM)
COc1c(C(=O)O)cnn1-c1cccc(-c2cccc(C)c2OCc2cc(C)c3c(c2)CCN(C2COC2)C3)n1 [Compound 186]	110 µg/mL (≈ 203 µM)	83 µg/mL (≈ 154 µM)	99 µg/mL (≈ 183 µM)
COc1c(C(=O)O)cnn1-c1cccc(-c2cccc(C)c2OCc2ccc3c(c2)CCN(C[C@@H]2CCOC2)C3)n1 [Compound 188]	89 µg/mL (≈ 160 µM)	77 µg/mL (≈ 139 µM)	73 µg/mL (≈ 132 µM)
CCOc1c(C(=O)O)cnn1-c1cccc(-c2cccc(C)c2OCc2ccc3c(c2C)CCN(C[C@@H]2CCOC2)C3)n1 [Compound 189]	89 µg/mL (≈ 153 µM)	73 µg/mL (≈ 125 µM)	75 µg/mL (≈ 129 µM)
CCOc1c(C(=O)O)cnn1-c1cccc(-c2cccc(C)c2OCc2ccc3c(c2C)CCN(CC2(C)COC2)CC3)n1 [Compound 190]	100 µg/mL (≈ 168 µM)	83 µg/mL (≈ 139 µM)	87 µg/mL (≈ 146 µM)
COc1c(C(=O)O)cnn1-c1cccc(-c2cccc(C)c2OCc2ccc3c(c2C)CCN(C[C@@H]2CCOC2)C3)n1 [Compound 191]	100 µg/mL (≈ 176 µM)	85 µg/mL (≈ 149 µM)	80 µg/mL (≈ 141 µM)
CCOc1c(C(=O)O)cnn1-c1cccc(-c2cccc(C)c2OCc2ccc3c(c2C)CCN(C[C@H]2CCOC2)C3)n1 [Compound 193]	100 µg/mL (≈ 172 µM)	80 µg/mL (≈ 137 µM)	73 µg/mL (≈ 125 µM)
CCOc1c(C(=O)O)cnn1-c1cccc(-c2cccc(C)c2OCc2ccc3c(c2C)CCN(C2CCOCC2)C3=O)n1 [Compound 194]	0.68 µg/mL (≈ 1.14 µM)	2.5 µg/mL (≈ 4.19 µM)	78 µg/mL (≈ 131 µM)
CCOc1c(C(=O)O)cnn1-c1cccc(-c2cccc(C)c2OCc2cc(C)c3c(c2)CCN([C@@H]2CCCOC2)C3)n1 [Compound 195]	110 µg/mL (≈ 189 µM)	83 µg/mL (≈ 142 µM)	80 µg/mL (≈ 137 µM)
CCOc1c(C(=O)O)cnn1-c1cccc(-c2cccc(C)c2OCc2ccc3c(c2C)CCN(C(C)COC)CC3)n1 (stereo not drawn) [Compound 196]	89 µg/mL (≈ 152 µM)	77 µg/mL (≈ 132 µM)	85 µg/mL (≈ 145 µM)
CCOc1c(C(=O)O)cnn1-c1cccc(-c2cccc(C)c2OCc2cc(C)c3c(c2)CCN([C@H]2CCCOC2)C3)n1 [Compound 197]	110 µg/mL (≈ 189 µM)	83 µg/mL (≈ 142 µM)	79 µg/mL (≈ 136 µM)
COc1c(C(=O)O)cnn1-c1cccc(-c2cccc(C)c2OCc2ccc3c(c2C)CCN(C[C@@H]2CCCCO2)C3)n1 [Compound 198]	120 µg/mL (≈ 206 µM)	100 µg/mL (≈ 172 µM)	93 µg/mL (≈ 160 µM)
COc1c(C(=O)O)cnn1-c1cccc(-c2cccc(C)c2OCc2ccc3c(c2C)CCN(C[C@H]2CCCCO2)C3)n1 [Compound 199]	120 µg/mL (≈ 206 µM)	96 µg/mL (≈ 165 µM)	92 µg/mL (≈ 158 µM)
CCOc1c(C(=O)O)cnn1-c1cccc(-c2cccc(C)c2OCc2cc(C)c3c(c2)CCN(CC2(C)COC2)C3)n1 [Compound 200]	100 µg/mL (≈ 172 µM)	73 µg/mL (≈ 125 µM)	73 µg/mL (≈ 125 µM)
COc1c(C(=O)O)cnn1-c1cccc(-c2cccc(C)c2OCc2cc(F)c3c(c2)CCN(C2CCOCC2)C3)n1 [Compound 201]	87 µg/mL (≈ 152 µM)	68 µg/mL (≈ 119 µM)	66 µg/mL (≈ 115 µM)
COc1c(C(=O)O)cnn1-c1cccc(-c2cccc(C)c2OCc2ccc3c(c2C)CCN(C[C@H]2COCCO2)CC3)n1 [Compound 203]	81 µg/mL (≈ 135 µM)	70 µg/mL (≈ 117 µM)	72 µg/mL (≈ 120 µM)
COc1c(C(=O)O)cnn1-c1cccc(-c2cccc(C)c2OCc2ccc3c(c2C)CCN(C[C@@H]2COCCO2)CC3)n1 [Compound 204]	82 µg/mL (≈ 137 µM)	72 µg/mL (≈ 120 µM)	73 µg/mL (≈ 122 µM)
COc1c(C(=O)O)cnn1-c1cccc(-c2cccc(C)c2OCc2ccc3c(c2C)CCN([C@@H]2CCOC2)CC3)n1 [Compound 207]	82 µg/mL (≈ 144 µM)	68 µg/mL (≈ 120 µM)	73 µg/mL (≈ 128 µM)
